Measured values published in ChEMBL document CHEMBL1201862, “PubChem BioAssay data set” (2004).
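Five concentrations, 48 hours, 96-well plates. Here, GI50 denotes the concentration required for 50% inhibition of growth.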 Activity calls are given as the source filed them. Cut-off read from the data, not from the text of the source: active = GI50 up to about 1.1 µM and inactive = higher.

What was measured:
Assay in all cases: inhibition of tumour cell growth, NCI panel, 48 h
Hs-578T = tested on: Hs-578T
EKVX = tested on: EKVX
M14 = tested on: M14
OVCAR-5 = tested on: OVCAR-5
SR = tested on: SR
OVCAR-3 = tested on: OVCAR-3
SN12C = tested on: SN12C
CCRF-CEM = tested on: CCRF-CEM
HOP-92 = tested on: HOP-92
RPMI-8226 = tested on: RPMI-8226
HOP-62 = tested on: HOP-62
SF-268 = tested on: SF-268
UACC-257 = tested on: UACC-257
NCI-H226 = tested on: NCI-H226
BT-549 = tested on: BT-549
HT-29 = tested on: HT-29
SK-OV-3 = tested on: SK-OV-3
NCI-H522 = tested on: NCI-H522
U-251 = tested on: U-251
LOX IMVI = tested on: LOX IMVI

Measured: GI50

COc1ccc2nc3ccc(OC)cc3c(SCc3ccccc3)c2c1
inactive: Hs-578T > 100 µM | EKVX > 100 µM | M14 > 33.1 µM | OVCAR-5 > 100 µM | SR > 32.9 µM | OVCAR-3 > 100 µM | SN12C > 100 µM | CCRF-CEM > 52.7 µM | HOP-92 > 100 µM | RPMI-8226 48.8 µM | HOP-62 > 100 µM | SF-268 > 100 µM | UACC-257 > 92.5 µM | NCI-H226 > 100 µM | BT-549 > 100 µM | HT-29 > 100 µM | SK-OV-3 > 100 µM | NCI-H522 > 84.9 µM | U-251 > 88.3 µM | LOX IMVI > 83.4 µM

CCOC(=O)Cc1nn2c(=O)cc(C)nc2s1
inactive: Hs-578T > 100 µM | EKVX > 100 µM | M14 > 100 µM | OVCAR-5 > 100 µM | SR > 100 µM | OVCAR-3 > 100 µM | SN12C > 100 µM | CCRF-CEM > 100 µM | HOP-92 > 100 µM | RPMI-8226 > 100 µM | HOP-62 > 100 µM | SF-268 > 100 µM | UACC-257 > 100 µM | NCI-H226 > 100 µM | BT-549 > 100 µM | HT-29 > 100 µM | SK-OV-3 > 100 µM | NCI-H522 > 100 µM | U-251 > 100 µM | LOX IMVI > 100 µM
